Assay: xn = mol fraction of the nth substance listed

O=S1(=O)CCCC1 + Cc1ccccc1C
viscosity [mPa·s], 101.3 kPa
Conditions	x2 = 0.1118	x2 = 0.2206	x2 = 0.3267	x2 = 0.4301	x2 = 0.5311	x2 = 0.6293	x2 = 0.7254	x2 = 0.8191	x2 = 0.9105
303.15 K	6.89	4.875	3.582	2.692	2.066	1.618	1.243	1.04	0.8453
323.15 K	4.358	3.169	2.397	1.854	1.456	1.173	0.9211	0.8044	0.6503

O=S1(=O)CCCC1 + CC(C)(C)O
viscosity [mPa·s], 101 kPa
Conditions	x1 = 0.1916	x1 = 0.2786	x1 = 0.3584	x1 = 0.4717	x1 = 0.5569	x1 = 0.6312	x1 = 0.732	x1 = 0.8339	x1 = 0.9188
303.15 K	2.995	3.12	3.325	3.712	4.135	4.595	5.495	6.747	8.277
308.15 K	2.513	2.644	2.844	3.213	3.602	4.022	4.832	5.938	7.276
313.15 K	2.121	2.266	2.467	2.806	3.169	3.553	4.285	5.264	6.424

Cc1ccc(O)cc1 + C1COCCO1
viscosity [mPa·s], 101 kPa
Conditions	303.15 K	308.15 K	313.15 K	318.15 K
x1 = 0.0835	1.335	1.184	1.097	0.9967
x1 = 0.1701	1.476	1.319	1.201	1.106
x1 = 0.26	1.752	1.563	1.422	1.289
x1 = 0.3534	2.165	1.887	1.71	1.542
x1 = 0.4504	2.798	2.473	2.175	1.964
x1 = 0.5515	3.65	3.108	2.733	2.409
x1 = 0.6567	4.783	4.09	3.524	–
x1 = 0.7663	6.413	5.276	4.492	3.804
x1 = 0.8807	8.261	5.704	5.704	4.834
x2 = 0.1	–	6.901	–	–
x2 = 0.2	–	5.697	–	–
x2 = 0.3	–	4.498	–	–
x2 = 0.4	–	3.461	–	–
x2 = 0.5	–	2.724	–	–
x2 = 0.6	–	2.14	–	–
x2 = 0.7	–	1.705	–	–
x2 = 0.8	–	1.401	–	–
x2 = 0.9	–	1.142	–	–

C=CCC[n+]1ccn(CCCC)c1.[Br-] + O
viscosity [mPa·s], 101.33 kPa
Conditions	x1 = 0.0008989	x1 = 0.00189	x1 = 0.003585	x1 = 0.005487	x1 = 0.007167	x1 = 0.008848
293.15 K	1.032	1.064	1.12	1.182	1.24	1.289
298.15 K	0.915	0.943	0.988	1.046	1.094	1.137
303.15 K	0.818	0.844	0.883	0.931	0.975	1.011
308.15 K	0.736	0.758	0.795	0.837	0.874	0.902
313.15 K	0.667	0.687	0.719	0.757	0.789	0.815

C1CC[NH2+]C1.CCCCCCCC(=O)[O-] + CCCCO
viscosity [mPa·s], 101 kPa
Conditions	x1 = 0.1198	x1 = 0.2524	x1 = 0.3299	x1 = 0.4745	x1 = 0.6187	x1 = 0.7174	x1 = 0.7912	x1 = 0.9269
293.15 K	5.39	10.82	13.21	22.51	34.14	44.35	51.93	65.75
298.15 K	6.9	10.82	–	21.6	30.39	38.92	44.89	57.02
303.15 K	4.75	8.64	11.15	17	24.8	31.23	35.44	45.4
308.15 K	4.32	7.79	10.03	14.95	21.43	26.63	29.97	38.73
313.15 K	3.6	6.6	8.5	13	17.8	21.5	25.3	31.7

Cc1cccc(C)c1 + ClC(Cl)Cl
298.15 K, 101 kPa
Conditions	viscosity [mPa·s]
x2 = 0.2254	0.5977
x2 = 0.4357	0.6026
x2 = 0.4615	0.6004
x2 = 0.5258	0.5981
x2 = 0.5786	0.5938
x2 = 0.6284	0.593
x2 = 0.6945	0.5876
x2 = 0.7272	0.5844

O=S1(=O)CCCC1 + OCCO
303.15 K, 101 kPa
Conditions	viscosity [mPa·s]
x1 = 0.0503	11.92
x1 = 0.0993	10.75
x1 = 0.2006	8.926
x1 = 0.2984	7.669
x1 = 0.393	6.857
x1 = 0.4553	6.555
x1 = 0.5015	6.443
x1 = 0.5484	6.443
x1 = 0.6038	6.548
x1 = 0.7048	7.013
x1 = 0.8065	7.683
x1 = 0.9034	8.532
x1 = 0.9426	9.018

Cc1cccc(C)c1 + Cc1ccc(C)cc1
viscosity [mPa·s], 101.3 kPa
Conditions	298.15 K	303.15 K
x1 = 0.0856	–	0.5666
x1 = 0.0857	0.6046	–
x1 = 0.1427	–	0.5659
x1 = 0.1428	0.6026	–
x1 = 0.2528	0.5998	0.5651
x1 = 0.3046	–	0.5648
x1 = 0.3922	0.5968	0.5643
x1 = 0.474	0.5955	0.5641
x1 = 0.5823	–	0.5636
x1 = 0.5824	0.5942	–
x1 = 0.6995	0.5935	0.5627
x1 = 0.8337	0.5928	–
x1 = 0.8339	–	0.5614
x1 = 0.9538	0.5899	0.5602

O=S1(=O)CCCC1 + CC(C)O
viscosity [mPa·s], 101 kPa
Conditions	x1 = 0.0756	x1 = 0.1606	x1 = 0.2446	x1 = 0.3418	x1 = 0.4362	x1 = 0.5514	x1 = 0.6552	x1 = 0.754	x1 = 0.8754
303.15 K	1.634	1.705	1.823	2.067	2.386	2.94	3.662	4.701	6.713
308.15 K	1.438	1.489	1.616	1.837	2.128	2.626	3.274	4.19	5.992
313.15 K	–	1.324	1.442	1.644	1.908	2.356	2.945	3.754	5.332

From the CheMixHub viscosity set
